# Experimental data from PubChem BioAssay AID330 (DTP/NCI, 2004).
# Values joined by “and” are separate entries in the source; they are usually repeats but may differ in a detail not shown here. Identical values can stand only once. Toxic doses and inconclusive results are not listed.
# System: P388 leukemia ip, CD2F1 mice, survival T/C
# Experiment: NCI In Vivo Anticancer Drug Screen. Data for tumor model P388 Leukemia (intraperitoneal) in CD2F1 (CDF1) mice
# Details: endpoint: median survival time, higher = longer survival
# Procedure, shortened: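 Mice carrying the transplanted tumor received test compound or vehicle. Survival was recorded in each group, and the value is the treated-group measurement divided by that of the vehicle-treated control group.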
# [1] = dose: 12.5 mg/kg/injection, schedule: Q01DX009 (ip), vehicle: Klucel (hydroxypropylcellulose) (HPC)
# [2] = dose: 25.0 mg/kg/injection, schedule: Q01DX009 (ip), vehicle: Klucel (hydroxypropylcellulose) (HPC)
# [3] = dose: 50.0 mg/kg/injection, schedule: Q01DX009 (ip), vehicle: Klucel (hydroxypropylcellulose) (HPC)
# [4] = dose: 100.0 mg/kg/injection, schedule: Q01DX001 (ip), vehicle: Klucel (hydroxypropylcellulose) (HPC)
# [5] = dose: 100.0 mg/kg/injection, schedule: Q01DX009 (ip), vehicle: Klucel (hydroxypropylcellulose) (HPC)
# [6] = dose: 200.0 mg/kg/injection, schedule: Q01DX001 (ip), vehicle: Klucel (hydroxypropylcellulose) (HPC)
# [7] = dose: 200.0 mg/kg/injection, schedule: Q01DX009 (ip), vehicle: Klucel (hydroxypropylcellulose) (HPC)
# [8] = dose: 100.0 mg/kg/injection, schedule: Q04DX003 (ip), vehicle: Klucel (hydroxypropylcellulose) (HPC)
# [9] = dose: 100.0 mg/kg/injection, schedule: Q01DX009 (ip), vehicle: saline with Tween-80
# [10] = dose: 200.0 mg/kg/injection, schedule: Q01DX009 (ip), vehicle: saline with Tween-80
# [11] = dose: 100.0 mg/kg/injection, schedule: Q04DX003 (ip), vehicle: saline with Tween-80
# [12] = dose: 60.0 mg/kg/injection, schedule: Q01DX005 (ip), vehicle: saline with Tween-80
# [13] = dose: 120.0 mg/kg/injection, schedule: Q01DX005 (ip), vehicle: saline with Tween-80
# [14] = dose: 240.0 mg/kg/injection, schedule: Q01DX005 (ip), vehicle: saline with Tween-80
# [15] = dose: 50.0 mg/kg/injection, schedule: Q04DX003 (ip), vehicle: saline with Tween-80
# [16] = dose: 200.0 mg/kg/injection, schedule: Q04DX003 (ip), vehicle: Klucel (hydroxypropylcellulose) (HPC)
smiles,measurement,setting,value
Cc1cc(C)n(C2=NS(=O)(=O)c3ccccc3N2c2ccccc2)n1,T/C,"dose: 100.0 mg/kg/injection, schedule: Q01DX001 (ip), vehicle: saline with Tween-80",102 % of control
same,T/C,"dose: 200.0 mg/kg/injection, schedule: Q01DX001 (ip), vehicle: saline with Tween-80",98 % of control
same,T/C,"dose: 400.0 mg/kg/injection, schedule: Q01DX001 (ip), vehicle: saline with Tween-80",97 % of control
C=C(N)/C=C1/NC(C)=CS1,T/C,"dose: 15.0 mg/kg/injection, schedule: Q01DX005 (ip), vehicle: saline",96 % of control
same,T/C,"dose: 30.0 mg/kg/injection, schedule: Q01DX005 (ip), vehicle: saline",96 % of control
same,T/C,"dose: 60.0 mg/kg/injection, schedule: Q01DX005 (ip), vehicle: saline",91 % of control and 94 % of control
c1ccc2c(c1)CCNC2C1NCCc2ccccc21 (configuration not stated),T/C,[1],107 % of control
same,T/C,[2],100 % of control
same,T/C,[3],104 % of control
same,T/C,[4],109 % of control
same,T/C,[5],105 % of control and 91 % of control
same,T/C,[6],107 % of control
NC(=O)c1ncn(C2OC(CO)C(O)C2O)c1O (configuration not stated),T/C,[1],107 % of control
same,T/C,[2],113 % of control
same,T/C,[3],115 % of control
same,T/C,[5],113 % of control
same,T/C,[7],96 % of control
Cc1n[nH]c(=S)n1C,T/C,"dose: 43.75 mg/kg/injection, schedule: Q04DX003 (ip), vehicle: saline sonified",95 % of control
same,T/C,"dose: 87.5 mg/kg/injection, schedule: Q04DX003 (ip), vehicle: saline sonified",100 % of control
same,T/C,"dose: 175.0 mg/kg/injection, schedule: Q04DX003 (ip), vehicle: saline sonified",90 % of control
C=CCOC(=O)CCl,T/C,"dose: 25.0 mg/kg/injection, schedule: Q04DX003 (ip), vehicle: Klucel (hydroxypropylcellulose) (HPC)",99 % of control
same,T/C,"dose: 50.0 mg/kg/injection, schedule: Q04DX003 (ip), vehicle: Klucel (hydroxypropylcellulose) (HPC)",98 % of control
same,T/C,[8],93 % of control and 96 % of control
COc1cc(NC(=O)CNC(=O)CNC(=O)C(N)CC(C)C)cc2ccccc12 (configuration not stated),T/C,"dose: 50.0 mg/kg/injection, schedule: Q01DX005 (ip), vehicle: Klucel (hydroxypropylcellulose) (HPC)",100 % of control
same,T/C,"dose: 100.0 mg/kg/injection, schedule: Q01DX005 (ip), vehicle: Klucel (hydroxypropylcellulose) (HPC)",96 % of control
same,T/C,"dose: 200.0 mg/kg/injection, schedule: Q01DX005 (ip), vehicle: Klucel (hydroxypropylcellulose) (HPC)",100 % of control
O=C(NCc1ccccc1)c1ccc([N+](=O)[O-])cc1,T/C,"dose: 50.0 mg/kg/injection, schedule: Q01DX009 (ip), vehicle: saline with Tween-80",87 % of control
same,T/C,[9],95 % of control
same,T/C,[10],95 % of control
same,T/C,"dose: 400.0 mg/kg/injection, schedule: Q01DX009 (ip), vehicle: saline with Tween-80",91 % of control
O=CNC(NC=O)NC=O,T/C,"dose: 25.0 mg/kg/injection, schedule: Q01DX009 (ip), vehicle: saline",109 % of control
same,T/C,"dose: 50.0 mg/kg/injection, schedule: Q01DX009 (ip), vehicle: saline",97 % of control
same,T/C,"dose: 100.0 mg/kg/injection, schedule: Q01DX009 (ip), vehicle: saline",105 % of control
same,T/C,"dose: 200.0 mg/kg/injection, schedule: Q01DX009 (ip), vehicle: saline",104 % of control
COc1ccc(OC)c(/C=C(/C)[N+](=O)[O-])c1,T/C,"dose: 44.0 mg/kg/injection, schedule: Q04DX003 (ip), vehicle: saline with Tween-80",119 % of control
same,T/C,"dose: 66.0 mg/kg/injection, schedule: Q04DX003 (ip), vehicle: saline with Tween-80",117 % of control
same,T/C,[11],123 % of control
same,T/C,"dose: 150.0 mg/kg/injection, schedule: Q04DX003 (ip), vehicle: saline with Tween-80",124 % of control
COc1ccc(C(=O)c2ccccc2)c(OC(=O)Nc2c(Cl)cccc2Cl)c1,T/C,[12],93 % of control
same,T/C,[13],107 % of control
same,T/C,[14],88 % of control
CC1(C)CC(=O)c2ccccc21,T/C,"dose: 3.12 mg/kg/injection, schedule: Q01DX005 (ip), vehicle: saline with Tween-80",106 % of control
same,T/C,"dose: 6.25 mg/kg/injection, schedule: Q01DX005 (ip), vehicle: saline with Tween-80",103 % of control
same,T/C,"dose: 12.5 mg/kg/injection, schedule: Q01DX005 (ip), vehicle: saline with Tween-80",113 % of control
same,T/C,"dose: 25.0 mg/kg/injection, schedule: Q01DX005 (ip), vehicle: saline with Tween-80",113 % of control
c1ccc(CN2CCC(N3CNc4ccccc43)CC2)cc1,T/C,"dose: 25.0 mg/kg/injection, schedule: Q04DX003 (ip), vehicle: saline with Tween-80",109 % of control
same,T/C,[15],114 % of control
same,T/C,[11],88 % of control
C=CCOc1ccc2ccc(=O)oc2c1,T/C,[15],109 % of control
same,T/C,[11],104 % of control
same,T/C,"dose: 200.0 mg/kg/injection, schedule: Q04DX003 (ip), vehicle: saline with Tween-80",101 % of control
Cc1c/c(=N\O)c2c(=O)c([N+](=O)[O-])coc2n1O,T/C,[3],100 % of control
same,T/C,[5],100 % of control
same,T/C,[7],97 % of control
N#CC1CCCC(c2ccccc2)(C2CCCCC2)C1=O (configuration not stated),T/C,[4],99 % of control
same,T/C,[6],97 % of control
same,T/C,"dose: 400.0 mg/kg/injection, schedule: Q01DX001 (ip), vehicle: Klucel (hydroxypropylcellulose) (HPC)",103 % of control
O=c1c(Br)cc2c(-c3ccccc3)c3cc(Br)c(O)c(Br)c3oc-2c1Br,T/C,[12],97 % of control
same,T/C,[13],97 % of control
same,T/C,[14],110 % of control
Oc1ccc(C2COc3c(ccc(O)c3O)C2)cc1 (configuration not stated),T/C,[12],98 % of control
same,T/C,[13],100 % of control
same,T/C,[14],101 % of control
O=C(O)c1cccc2cccc(-c3c4ccc(=O)c(O)c-4oc4c(O)c(O)ccc34)c12,T/C,[9],109 % of control
same,T/C,[10],113 % of control
O=C1CC(O)(c2ccccc2)CCS1 (configuration not stated),T/C,[8],99 % of control
same,T/C,[16],107 % of control
same,T/C,"dose: 400.0 mg/kg/injection, schedule: Q04DX003 (ip), vehicle: Klucel (hydroxypropylcellulose) (HPC)",106 % of control
COC(=O)c1cc(OC(C)=O)c2cc3c(cc2c1-c1cc(OC)c(OC)c(OC)c1)OCO3,T/C,[8],93 % of control
same,T/C,[16],89 % of control
O=CC(NC(=O)CCCc1ccc(N(CCCl)CCCl)cc1)C(O)C(O)C(O)CO (configuration not stated),T/C,[1],204 % of control and 215 % of control
same,T/C,[2],211 % of control and 227 % of control
same,T/C,[3],105 % of control and 86 % of control and 89 % of control
O=C(N/N=C/c1ccc(O)cc1O)c1cccnc1,T/C,"dose: 12.5 mg/kg/injection, schedule: Q01DX009 (ip), vehicle: olive oil, sesame oil, peanut oil",106 % of control
same,T/C,"dose: 25.0 mg/kg/injection, schedule: Q01DX009 (ip), vehicle: olive oil, sesame oil, peanut oil",105 % of control
same,T/C,"dose: 50.0 mg/kg/injection, schedule: Q01DX009 (ip), vehicle: olive oil, sesame oil, peanut oil",121 % of control
same,T/C,"dose: 50.0 mg/kg/injection, schedule: Q01DX009 (oral), vehicle: saline with Tween-80",108 % of control
same,T/C,"dose: 100.0 mg/kg/injection, schedule: Q01DX009 (ip), vehicle: olive oil, sesame oil, peanut oil",102 % of control
same,T/C,"dose: 100.0 mg/kg/injection, schedule: Q01DX009 (oral), vehicle: saline with Tween-80",108 % of control
same,T/C,"dose: 200.0 mg/kg/injection, schedule: Q01DX009 (oral), vehicle: saline with Tween-80",101 % of control
same,T/C,"dose: 400.0 mg/kg/injection, schedule: Q01DX009 (oral), vehicle: saline with Tween-80",105 % of control
O=C1CC(c2ccc(Cl)cc2)C(c2ccc(Cl)cc2)C1C(=O)OC1CCCCC1 (configuration not stated),T/C,"dose: 1.56 mg/kg/injection, schedule: Q01DX001 (ip), vehicle: Klucel (hydroxypropylcellulose) (HPC)",110 % of control
same,T/C,"dose: 3.13 mg/kg/injection, schedule: Q01DX001 (ip), vehicle: Klucel (hydroxypropylcellulose) (HPC)",107 % of control
same,T/C,"dose: 6.25 mg/kg/injection, schedule: Q01DX001 (ip), vehicle: Klucel (hydroxypropylcellulose) (HPC)",107 % of control and 89 % of control
CN1CCC/C1=N\S(=O)(=O)/N=C1\CCCN1C,T/C,"dose: 50.0 mg/kg/injection, schedule: Q01DX005 (ip), vehicle: saline",92 % of control
same,T/C,"dose: 100.0 mg/kg/injection, schedule: Q01DX005 (ip), vehicle: saline",100 % of control
same,T/C,"dose: 200.0 mg/kg/injection, schedule: Q01DX005 (ip), vehicle: saline",99 % of control
